From patent US20220159955A1, “METHOD OF IMPROVING PLANT GROWTH” (UPL LTD, priority 2020, published 2022)
“Also recorded” adds a separate entry of the source.

Experiments:
Format in all cases: in vivo
rice (DSR) [1] = assay: Seed treatment in rice (DSR): rice grain yield (Example 4)
corn seeds [2] = assay: Germination of flonicamid-treated corn seeds, line sowing (Example 2); conditions: for Average germination %: corn seed
Description: In this experiment the effect of flonicamid was tested on corn seeds. Treated and untreated seeds were sown to see the impact of flonicamid on the plant germination. Treatments are performed using FS formulation of example 1. A line sowing method was used to sow the seeds.

rice (DSR) [3] = assay: Seed treatment in rice (DSR): plant height, PGE rating, tillers (Example 4)
corn seeds [4] = assay: Plant vigour visual rating of corn from treated seeds (Example 3); parameters: Average Plant Vigor visual rating: scale not given here
Description: In this experiment the effect was tested on corn seeds. Treated and untreated seeds were sown to see the impact of flonicamid on the plant vigour. A line sowing method was used to sow the seeds.

rice (DSR) [5] = assay: Seed treatment in rice (DSR): germination and crop safety (Example 4)
Thrips [6] = assay: Efficacy of seed treatment on thrips in direct sown rice (Example 4)
transplanted rice [7] = assay: Seed treatment in transplanted rice: germination and crop safety (Example 5)
Thrips [8] = assay: Efficacy of seed treatment on thrips in transplanted rice (Example 5)
transplanted rice [9] = assay: Seed treatment in transplanted rice: plant height, PGE rating, tillers (Example 5)
corn seeds [10] = assay: Phytotoxicity after seed treatment, corn; conditions: treatment of seeds

With `N#CCNC(=O)c1cnccc1C(F)(F)F` [Flonicamid, N-cyanomethyl-4-trifluoromethylnicotinamide] the “Rice grain yield t/ha” value (rice (DSR) [1]; 5 ml/kg Seed) was 4.53 t/ha, the “Rice grain yield t/ha” value (rice (DSR) [1]; 10 ml/kg Seed) was 4.85 t/ha and the Average germination % (corn seeds [2]; 5 g/ml/kg Seed, 5DAS) was 77.5%. It also gave an Average germination % (corn seeds [2]; 5 g/ml/kg Seed, 10DAS) of 97.5%, an Average germination % (corn seeds [2]; 5 g/ml/kg Seed, 15DAS) of 97.5% and an Average germination % (corn seeds [2]; 10 g/ml/kg Seed, 5DAS) of 82.5%. The Average germination % (corn seeds [2]; 10 g/ml/kg Seed, 10DAS) was 98%, the Average germination % (corn seeds [2]; 10 g/ml/kg Seed, 15DAS) was 98% and the “germination of tested corn seeds (in words)” value (corn seeds [2]; corn, seed treatment vs untreated) was “significant improvement in germination; also recorded: Enhanced germination %”. The PGE rating (rice (DSR) [3]; 5 ml/kg Seed, 15 DAS) was 2, the “Plant hight (cm)” value (rice (DSR) [3]; 5 ml/kg Seed, 15 DAS) was 12.83 cm and the “Plant hight (cm)” value (rice (DSR) [3]; 5 ml/kg Seed, 20 DAS) was 22.45 cm. The PGE rating (rice (DSR) [3]; 5 ml/kg Seed, 30 DAS) was 2, the No. of tiller/hill (rice (DSR) [3]; 5 ml/kg Seed, 45 DAS) was 13.5 tiller/hill and the PGE rating (rice (DSR) [3]; 5 ml/kg Seed, 45 DAS) was 3. For the same compound, the No. of tiller/hill (rice (DSR) [3]; 5 ml/kg Seed, 60 DAS) was 15.3 tiller/hill, the PGE rating (rice (DSR) [3]; 10 ml/kg Seed, 15 DAS) was 1 and the “Plant hight (cm)” value (rice (DSR) [3]; 10 ml/kg Seed, 15 DAS) was 15.33 cm. The “Plant hight (cm)” value (rice (DSR) [3]; 10 ml/kg Seed, 20 DAS) was 26.66 cm, the PGE rating (rice (DSR) [3]; 10 ml/kg Seed, 30 DAS) was 1 and the No. of tiller/hill (rice (DSR) [3]; 10 ml/kg Seed, 45 DAS) was 17.2 tiller/hill. For the same compound, the PGE rating (rice (DSR) [3]; 10 ml/kg Seed, 45 DAS) was 2, the No. of tiller/hill (rice (DSR) [3]; 10 ml/kg Seed, 60 DAS) was 19.7 tiller/hill and the “crop vigour parameter (in words)” value (rice (DSR) [3]; seed treatment vs untreated) was “improvement in crop vigour parameter”. The “Average Plant Vigor visual rating” value (corn seeds [4]; 5 g/ml/kg Seed, 10DAS) was 2, the “Average Plant Vigor visual rating” value (corn seeds [4]; 5 g/ml/kg Seed, 20DAS) was 1 and the “Average Plant Vigor visual rating” value (corn seeds [4]; 5 g/ml/kg Seed, 30DAS) was 1. The “Average Plant Vigor visual rating” value (corn seeds [4]; 5 g/ml/kg Seed, 40DAS) was 1, the “Average Plant Vigor visual rating” value (corn seeds [4]; 10 g/ml/kg Seed, 10DAS) was 2 and the “Average Plant Vigor visual rating” value (corn seeds [4]; 10 g/ml/kg Seed, 20DAS) was 1. The “Average Plant Vigor visual rating” value (corn seeds [4]; 10 g/ml/kg Seed, 30DAS) was 1, the “Average Plant Vigor visual rating” value (corn seeds [4]; 10 g/ml/kg Seed, 40DAS) was 1 and the “growth versus untreated control (in words)” value (corn seeds [4]; 30 days after sowing) was “Excellent growth”. For the same compound, the “% Germination” value (rice (DSR) [5]; 5 ml/kg Seed) was 90%, the “No. of germinated seed/sq · m” value (rice (DSR) [5]; 5 ml/kg Seed, 5DAS) was 65.3 seed/sq · m and the “No. of germinated seed/sq · m” value (rice (DSR) [5]; 5 ml/kg Seed, 10DAS) was 69.6 seed/sq · m. The “No. of germinated seed/sq · m” value (rice (DSR) [5]; 5 ml/kg Seed, 15 DAS) was 70.6 seed/sq · m, the “% Germination” value (rice (DSR) [5]; 10 ml/kg Seed) was 98% and the “No. of germinated seed/sq · m” value (rice (DSR) [5]; 10 ml/kg Seed, 5DAS) was 70.6 seed/sq · m. The “No. of germinated seed/sq · m” value (rice (DSR) [5]; 10 ml/kg Seed, 10DAS) was 73.3 seed/sq · m, the “No. of germinated seed/sq · m” value (rice (DSR) [5]; 10 ml/kg Seed, 15 DAS) was 78.6 seed/sq · m and the “plant growth/germination (in words)” value (rice (DSR) [5]; seed treatment vs untreated) was “enhanced plant growth/germination”. For the same compound, the “No. of Thrips/Seedling” value (Thrips [6]; 5 ml/kg Seed, 15DAS) was 4.5 Thrips/Seedling, the “No. of Thrips/Seedling” value (Thrips [6]; 5 ml/kg Seed, 20DAS) was 8.3 Thrips/Seedling and the “No. of Thrips/Seedling” value (Thrips [6]; 5 ml/kg Seed, 25DAS) was 12.3 Thrips/Seedling. For the same compound, the “No. of Thrips/Seedling” value (Thrips [6]; 10 ml/kg Seed, 15DAS) was 1.3 Thrips/Seedling, the “No. of Thrips/Seedling” value (Thrips [6]; 10 ml/kg Seed, 20DAS) was 4.8 Thrips/Seedling and the “No. of Thrips/Seedling” value (Thrips [6]; 10 ml/kg Seed, 25DAS) was 7.2 Thrips/Seedling. The “control of thrips (in words)” value (Thrips [6]; seed treatment vs untreated) was “better control of thrips”, the “% Germination” value (transplanted rice [7]; 5 ml/kg Seed) was 86% and the “No. of germinated seed/sq · m” value (transplanted rice [7]; 5 ml/kg Seed, 5DAS) was 98 seed/sq · m. For the same compound, the “No. of germinated seed/sq · m” value (transplanted rice [7]; 5 ml/kg Seed, 10DAS) was 102 seed/sq · m, the “No. of germinated seed/sq · m” value (transplanted rice [7]; 5 ml/kg Seed, 15DAS) was 108 seed/sq · m and the “% Germination” value (transplanted rice [7]; 10 ml/kg Seed) was 98%. For the same compound, the “No. of germinated seed/sq · m” value (transplanted rice [7]; 10 ml/kg Seed, 5DAS) was 110 seed/sq · m, the “No. of germinated seed/sq · m” value (transplanted rice [7]; 10 ml/kg Seed, 10DAS) was 120 seed/sq · m and the “No. of germinated seed/sq · m” value (transplanted rice [7]; 10 ml/kg Seed, 15DAS) was 128 seed/sq · m. The “No. of Thrips/Seedling” value (Thrips [8]; 5 ml/kg Seed, 15DAS) was 2.5 Thrips /Seedling, the “No. of Thrips/Seedling” value (Thrips [8]; 5 ml/kg Seed, 20DAS) was 7.2 Thrips /Seedling and the “No. of Thrips/Seedling” value (Thrips [8]; 5 ml/kg Seed, 25DAS) was 11.5 Thrips /Seedling. For the same compound, the “No. of Thrips/Seedling” value (Thrips [8]; 10 ml/kg Seed, 15DAS) was 1.2 Thrips /Seedling, the “No. of Thrips/Seedling” value (Thrips [8]; 10 ml/kg Seed, 20DAS) was 5.6 Thrips /Seedling and the “No. of Thrips/Seedling” value (Thrips [8]; 10 ml/kg Seed, 25DAS) was 9.3 Thrips /Seedling. For the same compound, the “Plant height (cm)” value (transplanted rice [9]; 5 ml/kg Seed, 15DAS) was 51.5 cm, the “Plant height (cm)” value (transplanted rice [9]; 5 ml/kg Seed, 20DAS) was 72.8 cm and the PGE rating (transplanted rice [9]; 5 ml/kg Seed, 30 DAS) was 2. The No. of tiller/hill (transplanted rice [9]; 5 ml/kg Seed, 45DAS) was 20.8 tiller/hill, the PGE rating (transplanted rice [9]; 5 ml/kg Seed, 45DAS) was 2 and the No. of tiller/hill (transplanted rice [9]; 5 ml/kg Seed, 60DAS) was 22.6 tiller/hill. The “Plant height (cm)” value (transplanted rice [9]; 10 ml/kg Seed, 15DAS) was 58.4 cm, the “Plant height (cm)” value (transplanted rice [9]; 10 ml/kg Seed, 20DAS) was 78.5 cm and the PGE rating (transplanted rice [9]; 10 ml/kg Seed, 30 DAS) was 1. For the same compound, the No. of tiller/hill (transplanted rice [9]; 10 ml/kg Seed, 45DAS) was 25.6 tiller/hill, the PGE rating (transplanted rice [9]; 10 ml/kg Seed, 45DAS) was 1 and the No. of tiller/hill (transplanted rice [9]; 10 ml/kg Seed, 60DAS) was 28.5 tiller/hill. For the same compound, the phytotoxicity (corn seeds [10]) was “no phytotoxicity was observed”.
